Source: ChEMBL document CHEMBL3124933, “Optimization of brain penetrant 11β-hydroxysteroid dehydrogenase type I inhibitors and in vivo testing in diet-induced obese mice” (J Med Chem, 2014)

Legend:
physchem = details: buffer, pH 7.4
[1] = Oral bioavailability in Han Wistar rat; assay type: ADME, organism-based; details: in vivo
[2] = Clearance in iv dosed Han Wistar rat; assay type: ADME, organism-based; details: in vivo
[3] = Ratio of total drug level in brain to blood in Han Wistar rat at 30 mg/kg, po measured at 1 hr by LC-MS/MS analysis; assay type: ADME, organism-based; set-up: dose 30 mg/kg, route oral; details: read-out: BBR
[4] = Ratio of free drug level in brain to blood in diet-induced obese C57B6 mouse model at 20 mg/kg administered through diet for 21 days measured on day 24; assay type: ADME, organism-based; set-up: dose 20 mg/kg; details: po
[5] = Ratio of free drug level in brain to blood in Han Wistar rat at 30 mg/kg, po measured at 1 hr by LC-MS/MS analysis; assay type: ADME, organism-based; set-up: dose 30 mg/kg, route oral
[6] = Volume of distribution at steady state in C57B6 mouse at 4 umol/kg, iv; assay type: ADME, organism-based; details: in vivo, read-out: Vdss
[7] = Oral bioavailability in C57B6 mouse at 14.3 umol/kg; assay type: ADME, organism-based; details: in vivo
[8] = AUC in Han Wistar rat at 12.3 umol/kg, po; assay type: ADME, organism-based, Plasma; details: whole blood
[9] = Oral bioavailability in Han Wistar rat at 12.3 umol/kg; assay type: ADME, organism-based; details: in vivo
[10] = Volume of distribution at steady state in Han Wistar rat at 3.1 umol/kg, iv; assay type: ADME, organism-based; details: in vivo, read-out: Vdss
[11] = AUC in C57B6 mouse at 14.3 umol/kg, po; assay type: ADME, organism-based, Plasma; details: whole blood
[12] = Clearance in C57B6 mouse at 4 umol/kg, iv; assay type: ADME, organism-based; details: in vivo
[13] = Clearance in Han Wistar rat at 3.1 umol/kg, iv; assay type: ADME, organism-based; details: in vivo
[14] = Apparent permeability from apical to basolateral side in MDCK cells; assay type: ADME, cell-based, Canis lupus familiaris; details: dog
[15] = AUC in Han Wistar rat whole blood at 7.4 umol/kg, po
[16] = Ratio of free drug level in brain to blood in diet-induced obese C57B6 mouse model at 4 to 40 mg/kg/day administered through diet for 21 days measured on day 24; assay type: ADME, organism-based; details: po
[17] = Oral bioavailability in C57B6 mouse at 17.6 umol/kg; assay type: ADME, organism-based; details: in vivo
[18] = Clearance in Han Wistar rat at 5.2 umol/kg, iv; assay type: ADME, organism-based; details: in vivo
[19] = Volume of distribution at steady state in C57B6 mouse at 3.5 umol/kg, iv; assay type: ADME, organism-based; details: in vivo, read-out: Vdss
[20] = AUC in C57B6 mouse at 17.6 umol/kg, po; assay type: ADME, organism-based, Plasma; details: whole blood
[21] = Volume of distribution at steady state in Han Wistar rat at 5.2 umol/kg, iv; assay type: ADME, organism-based; details: in vivo, read-out: Vdss
[22] = Clearance in C57B6 mouse at 3.5 umol/kg, iv; assay type: ADME, organism-based; details: in vivo
[23] = Oral bioavailability in Han Wistar rat at 7.4 umol/kg; assay type: ADME, organism-based; details: in vivo

SMILES: COc1ncsc1C(=O)NC1C2CC3CC1CC(O)(C3)C2 (stereo unspecified)
- logD (physchem): 1.7

SMILES: O=C(N[C@H]1C2CC3CC1C[C@](O)(C3)C2)c1cncs1
- logD (physchem): 0.8

SMILES: CCOc1nc(C2CC2)c(C(=O)N[C@H]2C3CC4CC2C[C@](O)(C4)C3)s1
- logD (physchem): 2.9

SMILES: CNc1nc([C@H]2CCCO2)c(C(=O)N[C@H]2C3CC4CC2C[C@](O)(C4)C3)s1
- logD (physchem): 2.1

SMILES: O=C(N[C@H]1C2CC3CC1C[C@](O)(C3)C2)c1sc(OCC2CC2)nc1C1CC1
- logD (physchem): 3.6

SMILES: Nc1nc([C@H]2CCCO2)c(C(=O)N[C@H]2C3CC4CC2C[C@](O)(C4)C3)s1
- logD (physchem): 1.7

SMILES: COc1nc([C@H]2CCCO2)c(C(=O)N[C@H]2C3CC4CC2C[C@](O)(C4)C3)s1
- logD (physchem): 2.3
- bioavailability [1]: 40%
- clearance [2]: 21 mL/min/kg
- Kp at 1 h [3]: 1.1

SMILES: N#CC1(COc2nc(C3CC3)c(C(=O)N[C@H]3C4CC5CC3C[C@](O)(C5)C4)s2)CC1
- logD (physchem): 2.6
- Kp uu at 504 h [4]: 0.2
- Kp uu at 1 h [5]: 0.4
- Vd [6]: 1 L/kg
- bioavailability [7]: 73%
- AUC [8]: 7.9 µM·h
- bioavailability [9]: 79%
- Vd [10]: 0.6 L/kg
- Kp at 1 h [3]: 0.4
- AUC [11]: 12 µM·h
- clearance [12]: 18 mL/min/kg
- clearance [13]: 16 mL/min/kg

SMILES: O=C(N[C@H]1C2CC3CC1C[C@](O)(C3)C2)c1sc(OCCO)nc1C1CC1
- logD (physchem): 1.6
- bioavailability [1]: 25%
- clearance [2]: 5 mL/min/kg
- Kp at 1 h [3]: 0.2

SMILES: COC[C@@H](C)Oc1nc(C2CC2)c(C(=O)N[C@H]2C3CC4CC2C[C@](O)(C4)C3)s1
- logD (physchem): 2.6

SMILES: Cc1nc(C)c(C(=O)N[C@H]2C3CC4CC2C[C@](O)(C4)C3)s1
- logD (physchem): 1.3

SMILES: COC[C@H](C)Oc1nc([C@H]2CCCO2)c(C(=O)NC2C3CC4CC2CC(O)(C4)C3)s1 (stereo partly specified)
- logD (physchem): 2.8
- bioavailability [1]: 16%
- clearance [2]: 13 mL/min/kg
- Kp at 1 h [3]: 0.9

SMILES: CCCSc1nc(C)sc1C(=O)N[C@H]1C2CC3CC1C[C@](O)(C3)C2
- logD (physchem): 3.1

SMILES: Cc1nc([C@@H]2CCCO2)c(C(=O)N[C@H]2C3CC4CC2C[C@](O)(C4)C3)s1
- logD (physchem): 1.8

SMILES: CN(C)c1nc([C@H]2CCCO2)c(C(=O)N[C@H]2C3CC4CC2C[C@](O)(C4)C3)s1
- logD (physchem): 2.7

SMILES: CS(=O)(=O)Cc1nc([C@H]2CCCO2)c(C(=O)NC2C3CC4CC2CC(O)(C4)C3)s1 (stereo partly specified)
- logD (physchem): 0.4
- bioavailability [1]: 65%
- clearance [2]: 17 mL/min/kg
- Kp at 1 h [3]: < 0.05

SMILES: COC[C@H](C)Oc1nc(C2CC2)c(C(=O)N[C@H]2C3CC4CC2C[C@](O)(C4)C3)s1
- logD (physchem): 2.8

SMILES: O=C(N[C@H]1C2CC3CC1C[C@](O)(C3)C2)c1sc(O[C@@H]2CCCO2)nc1C1CC1
- logD (physchem): 2.4

SMILES: Cc1nc(OC2CCC2)c(C(=O)NC2C3CC4CC2CC(O)(C4)C3)s1 (stereo unspecified)
- logD (physchem): 3.2

SMILES: CCOc1nc(C)sc1C(=O)N[C@H]1C2CC3CC1C[C@](O)(C3)C2
- logD (physchem): 2.6

SMILES: COCCOc1nc(C2CC2)c(C(=O)N[C@H]2C3CC4CC2C[C@](O)(C4)C3)s1
- bioavailability [1]: 23%
- clearance [2]: 27 mL/min/kg
- Kp at 1 h [3]: 1.2

SMILES: COCCc1nc([C@H]2CCCO2)c(C(=O)N[C@H]2C3CC4CC2C[C@](O)(C4)C3)s1
- logD (physchem): 1.8

SMILES: COCc1nc([C@H]2CCCO2)c(C(=O)N[C@H]2C3CC4CC2C[C@](O)(C4)C3)s1
- logD (physchem): 1.9

SMILES: Cc1nc(OCC(F)(F)F)c(C(=O)N[C@H]2C3CC4CC2C[C@](O)(C4)C3)s1
- logD (physchem): 3.1

SMILES: O=C(N[C@H]1C2CC3CC1C[C@](O)(C3)C2)c1sc(OC2CCOCC2)nc1C1CC1
- logD (physchem): 2.7
- bioavailability [1]: 53%
- clearance [2]: 21 mL/min/kg
- Kp at 1 h [3]: 1.2

SMILES: C[C@@H]1CN(c2ncc(C(=O)NC3C4CC5CC3CC(O)(C5)C4)c(C3CCCC3)n2)C[C@H](C)O1 (stereo partly specified)
- logD (physchem): 3.6
- bioavailability [1]: 70%
- Papp A→B [14]: 20 ×10⁻⁶ cm/s

SMILES: O=C(NC1C2CC3CC1CC(O)(C3)C2)c1scnc1[C@H]1CCCO1 (stereo partly specified)
- logD (physchem): 1.6
- bioavailability [1]: 0%
- clearance [2]: 52 mL/min/kg

SMILES: COc1nc(C2CC2)c(C(=O)N[C@H]2C3CC4CC2C[C@](O)(C4)C3)s1
- logD (physchem): 2.6
- bioavailability [1]: 45%
- clearance [2]: 15 mL/min/kg
- Kp at 1 h [3]: 1.8

SMILES: CC(C)Oc1nc(C2CC2)c(C(=O)N[C@H]2C3CC4CC2C[C@](O)(C4)C3)s1
- logD (physchem): 3.4

SMILES: Cc1nc(OC2COC2)c(C(=O)N[C@H]2C3CC4CC2C[C@](O)(C4)C3)s1
- logD (physchem): 1.5

SMILES: COCCOc1nc([C@H]2CCCO2)c(C(=O)NC2C3CC4CC2CC(O)(C4)C3)s1 (stereo partly specified)
- logD (physchem): 2.1
- bioavailability [1]: 24%
- clearance [2]: 8 mL/min/kg
- Kp at 1 h [3]: 0.8

SMILES: CCc1nc([C@H]2CCCO2)c(C(=O)N[C@H]2C3CC4CC2C[C@](O)(C4)C3)s1
- logD (physchem): 2.4

SMILES: Cc1nc([C@H]2CCCO2)c(C(=O)N[C@H]2C3CC4CC2C[C@](O)(C4)C3)s1
- logD (physchem): 1.8
- bioavailability [1]: 11%
- clearance [2]: 17 mL/min/kg
- Kp at 1 h [3]: 1.5

SMILES: O=C(NC1C2CC3CC1CC(O)(C3)C2)c1cnc(N[C@H]2CCOC2)nc1C1CCCC1 (stereo partly specified)
- bioavailability [1]: 64%
- Papp A→B [14]: 3 ×10⁻⁶ cm/s

SMILES: O=C(N[C@H]1C2CC3CC1C[C@](O)(C3)C2)c1sc(OC2CCOCC2)nc1[C@H]1CCCO1
- logD (physchem): 2.6
- Kp uu at 1 h [5]: 0.9
- AUC [15]: 3.9 µM·h
- Kp uu at 504 h [16]: 0.5
- bioavailability [17]: 139%
- clearance [18]: 34 mL/min/kg
- Vd [19]: 1.7 L/kg
- AUC [20]: 20.6 µM·h
- Vd [21]: 1 L/kg
- Kp at 1 h [3]: 1.1
- clearance [22]: 26 mL/min/kg
- bioavailability [23]: 83%

SMILES: Cc1nc(C(F)(F)F)c(C(=O)N[C@H]2C3CC4CC2C[C@](O)(C4)C3)s1
- logD (physchem): 1.5

SMILES: N#CC1CC(Oc2nc([C@H]3CCCO3)c(C(=O)NC3C4CC5CC3CC(O)(C5)C4)s2)C1 (stereo partly specified)
- logD (physchem): 2.4

SMILES: C[C@@H]1CN(c2ncc(C(=O)NC3C4CC5CC3CC(O)(C5)C4)c([C@H]3CCCO3)n2)C[C@H](C)O1 (stereo partly specified)
- logD (physchem): 2.3
- bioavailability [1]: 35%
- Papp A→B [14]: 23 ×10⁻⁶ cm/s
- Kp at 1 h [3]: 0.3

SMILES: Cc1nc(C2CC2)c(C(=O)N[C@H]2C3CC4CC2C[C@](O)(C4)C3)s1
- logD (physchem): 1.9
- bioavailability [1]: 12%
- clearance [2]: 14 mL/min/kg
- Kp at 1 h [3]: 1.6

SMILES: Cc1nc(OC(C)C)c(C(=O)N[C@H]2C3CC4CC2C[C@](O)(C4)C3)s1
- logD (physchem): 3

SMILES: COc1nc(C)sc1C(=O)N[C@H]1C2CC3CC1C[C@](O)(C3)C2
- logD (physchem): 2
- bioavailability [1]: 23%
- clearance [2]: 22 mL/min/kg
- Kp at 1 h [3]: 1.2

SMILES: COc1c(C(=O)NC2C3CC4CC2CC(O)(C4)C3)cnn1C (stereo unspecified)
- logD (physchem): 0.4
- bioavailability [1]: 27%
- Kp at 1 h [3]: 0.1
